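These data come from cells grown in 96-well plates and exposed to compound for 48 hours at five concentrations. GI50: concentration for 50% inhibition of growth. TGI marks complete inhibition of growth.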
What was measured:
Test in all cases: inhibition of tumour cell growth, NCI panel, 48 h
UO-31 renal = test system: UO-31 renal
NCI-H226 lung = test system: NCI-H226 lung
SK-OV-3 ovarian = test system: SK-OV-3 ovarian
HT29 colon = test system: HT29 colon
LOX IMVI melanoma = test system: LOX IMVI melanoma
OVCAR-4 ovarian = test system: OVCAR-4 ovarian
RXF 393 renal = test system: RXF 393 renal
T-47D breast = test system: T-47D breast
MALME-3M melanoma = test system: MALME-3M melanoma
BT-549 breast = test system: BT-549 breast

SMILES	GI50 (UO-31 renal)	TGI (UO-31 renal)	GI50 (NCI-H226 lung)	TGI (NCI-H226 lung)	GI50 (SK-OV-3 ovarian)	TGI (SK-OV-3 ovarian)	GI50 (HT29 colon)	TGI (HT29 colon)	GI50 (LOX IMVI melanoma)	TGI (LOX IMVI melanoma)	GI50 (OVCAR-4 ovarian)	TGI (OVCAR-4 ovarian)	GI50 (RXF 393 renal)	TGI (RXF 393 renal)	GI50 (T-47D breast)	TGI (T-47D breast)	GI50 (MALME-3M melanoma)	TGI (MALME-3M melanoma)	GI50 (BT-549 breast)	TGI (BT-549 breast)
CCN1C(=O)N(c2ccccc2)C2NC(=S)N(/N=C/C=C/c3ccccc3)C21 (stereo not given)	0.499 µM	> 100 µM	2.79 µM	> 100 µM	0.421 µM	> 100 µM	0.295 µM	> 100 µM	0.647 µM	> 100 µM	4.68 µM	> 100 µM	0.345 µM	> 100 µM	0.405 µM	> 100 µM	2.83 µM	> 100 µM	0.643 µM	> 24.7 µM
CC(=O)OCC(=O)[C@@]12OC(C)(C)O[C@@H]1C[C@H]1[C@@H]3CC=C4C[C@@H](O)CC[C@]4(C)[C@H]3CC[C@@]12C		> 100 µM		> 100 µM		> 100 µM		> 100 µM		> 100 µM		> 100 µM		61.4 µM		> 100 µM		> 100 µM		96.4 µM
O=C1C2C(c3ccccc3)NC(c3ccccc3)C1C(c1ccccc1)NC2c1ccccc1 (stereo not given)		> 100 µM		> 100 µM		> 100 µM		> 100 µM		> 100 µM		> 100 µM		> 100 µM		> 100 µM		> 100 µM		> 100 µM
C=C1C(=O)O[C@H]2[C@H](OC(C)=O)[C@@H](C)CCC/C(C)=C/CC[C@@]3(C)O[C@@H]3C[C@@H]12		7.51 µM		3.32 µM		30.5 µM		8.05 µM		3.9 µM		8.76 µM		5.08 µM		3.62 µM		30.6 µM		8.76 µM
O=P(CCCCP(=O)(c1ccccc1)c1ccccc1)(c1ccccc1)c1ccccc1.[Cl][Sn]([Cl])([c]1ccccc1)[c]1ccccc1	1.68 µM	3.19 µM	5.07 µM	11.3 µM	6.25 µM	19 µM	1.89 µM	4.01 µM	1.29 µM	5.45 µM	1.54 µM	3 µM	1.38 µM	3.13 µM	0.073 µM	0.415 µM	1.41 µM	3.1 µM	1.79 µM	3.86 µM
CN(C)CC1C(=O)O[C@H]2[C@H]1CC/C(COC(=O)c1cc3ccccc3[nH]1)=C\CC[C@@]1(C)O[C@@H]21 (stereo not given in full)	0.872 µM	2.36 µM	3.23 µM	9.35 µM	19.9 µM	39.3 µM	0.671 µM	2.57 µM	0.5 µM	0.992 µM	1.57 µM	3.68 µM	1.4 µM	2.89 µM	2.19 µM	5.54 µM	1.8 µM	4.56 µM	1.66 µM	4.48 µM
COc1ccc(/C=C(\C#N)n2nnc3ccccc32)cc1	1.01 µM	13 µM	1.11 µM	21.2 µM	0.64 µM	> 40.1 µM	0.0453 µM	> 100 µM	0.548 µM	6.72 µM	0.615 µM	> 82.5 µM	0.15 µM	0.607 µM	0.0865 µM	72.9 µM	0.418 µM	> 71.2 µM	1.11 µM	17.1 µM
CN(C)CCCN1c2ccccc2C(C)(C)c2ccccc21		27.4 µM		29.7 µM		29.1 µM		24 µM		28.4 µM		28.2 µM		26.8 µM		38.7 µM		31 µM		28.1 µM
Cc1cc(NCc2cc(Nc3ccnc4cc(Cl)ccc34)ccc2F)nc(N2CCN(C)CC2)n1	1.38 µM	3.11 µM	2.22 µM	5.5 µM	3.31 µM	9.88 µM	1.72 µM	5.13 µM	1.26 µM	2.65 µM	1.56 µM	8.57 µM	1.26 µM	2.94 µM	2.1 µM	6.13 µM	1.84 µM	3.66 µM	1.77 µM	3.65 µM
COc1cc(/C=N/NC(=O)c2cnn3c2NC(c2ccccc2)C3)ccc1Oc1ccccc1 (stereo not given)	1.69 µM	12.2 µM	2.17 µM	7.95 µM	1.47 µM	10.6 µM	0.432 µM	1.76 µM	0.736 µM	2.36 µM	1.41 µM	3.78 µM	1.5 µM	4.53 µM	0.998 µM	16.9 µM	1.21 µM	5.26 µM	0.864 µM	3.16 µM
CC(C)COCC(CN(Cc1ccccc1)c1ccccc1)N1CCCC1 (stereo not given)	1.96 µM	13.1 µM	2.28 µM	9.48 µM	3.17 µM	13.6 µM	1.46 µM	4.17 µM	2.48 µM	8.2 µM	2.04 µM	11 µM	1.76 µM	6.37 µM	1.74 µM	6.49 µM	1.89 µM	4.74 µM	5.75 µM	19 µM
CCN1Cc2c(ccc(F)c2C#N)O[C@@H](C)CNC(=O)c2c(N)nn3ccc1nc23	1.14 µM	6.53 µM	3.79 µM	18.6 µM	1.66 µM	15.3 µM	0.98 µM	46.7 µM	1.13 µM	6.9 µM	8.44 µM	> 100 µM	0.46 µM	3.67 µM	2.78 µM	56.3 µM	1.15 µM	7.4 µM	5.98 µM	18.5 µM
C=C1C(=O)O[C@H]2[C@H]1CCC(/C=N/c1ncc(Br)cc1N)=C\CC[C@@]1(C)O[C@@H]21	1.28 µM	2.63 µM	2.88 µM	11.7 µM	16.3 µM	95.2 µM	1.93 µM	5.52 µM	1.71 µM	3.46 µM	2.43 µM	11.6 µM	1.38 µM	2.9 µM	1.55 µM	4.9 µM	1.55 µM	3.6 µM	1.82 µM	6.49 µM
OC(CNCC1CCCO1)Cn1c2ccc(Cl)cc2c2cc(Cl)ccc21 (stereo not given)	1.61 µM	3.15 µM	2.42 µM	8.1 µM	2.08 µM	4.19 µM	1.94 µM	3.72 µM	1.65 µM	3 µM	1.75 µM	4.32 µM	1.62 µM	3.51 µM	1.91 µM	3.89 µM	1.93 µM	3.94 µM	5.98 µM	27.1 µM

From PubChem BioAssay (NCI)
